Results: US11365215B2, “Method for preventing, improving, or treating inflammatory bowel disease” (Research & Business Foundation Sungkyunkwan University, priority 2015, dated 2022)
Peptide text beside a SMILES is read from it.

Assays:
[1] = tested on: AP-1; assay: AP-1-Luc reporter luciferase assay in LPS-treated RAW 246.7 cells; type: cell-based; details: 100 nM for 30 minutes, LPS 100 ng/ml 2 hours
Procedure: RAW 246.7 macrophage cells were transfected with AP-1-Luc reporter plasmid as described in Example 2.3. After 24 hours, the transfected cells with AP-1-Luc reporter plasmid were pretreated with compound 1.1 (SEQ ID NO: 2) (100 nM), IRAK1/4 inhibitor (25 μM), and smaducin-6 (100 nM) for 30 minutes, and then further treated with LPS (100 ng/ml) for 2 hours.

[2] = tested on: DSS-induced chronic colitis; assay: Disease activity index in DSS-induced chronic colitis model; type: in vivo, Mice (C57BL/6); details: mice
Procedure: Mice (7-8 weeks, female, C57BL/6) were fed 2% DSS polymer (MW of about 50000 Da) in drinking water for 5-7 days, and colitis was induced every 2 to 15 days. Compound 1.1 (SEQ ID NO: 2) was then administered orally to the mice, which had induced chronic colitis by DSS, in an amount of 50 mg/kg, 100 mg/kg, 200 mg/kg and 400 mg/kg, respectively, from the third day after feeding DDS, daily, for 11 days. Body weights, diarrhea and hemafecia of the mice were checked daily and the disease activity indexes were measured (FIG. 10).

[3] = tested on: NF-κB; assay: 5×NF-κB-Luc reporter luciferase assay in LPS-treated RAW 264.7 cells; type: cell-based; details: 100 nM for 30 minutes, LPS 100 ng/ml two hours
Procedure: Specifically, 5×NF-κB-Luc reporter plasmid was transfected into RAW 264.7 cells using Effectene (Qiagen, USA). The transfected cells were pretreated with 100 nM of compound 1.1 (SEQ ID NO: 2) for 30 minutes, and further treated with LPS (100 ng/ml) for two hours, and luciferase activity in the cells was measured (FIG. 4 depicts a graph showing relative inhibition activities of compound 1.1 (SEQ ID NO: 2) and compound 1.2 to NF-κB activation). When the cells were treated with compound 1.1 (SEQ ID NO: 2) and compound 1.2 according to the present invention, activation of NF-κB, which was induced by LPS, was inhibited (FIG. 4).
In addition, 5×NF-κB-Luc reporter plasmid was transfected into RAW 264.7 macrophage cells and treated with compounds of the present invention, as described above. After 24 hours of the transfection, the cells were pretreated with DMSO (control), compound 1.1 (SEQ ID NO: 2), reference compound 1 (SEQ ID NO: 16) (compound where palmitic acid is removed from compound 1.1 (SEQ ID NO: 2)), and smaducin-6 were treated at various concentrations of 100 pM, 1 nM, and 100 nM for 30 minutes, and then the cells were treated with 100 ng/ml of LPS for two hours.
(§1) Specifically, 5×NF-κB-Luc reporter plasmid, SBE-Luc reporter plasmid, and BRE-Luc reporter plasmid were individually transfected into Raw 264.7 macrophage cells. After 24 hours, the cells transfected with the NF-κB-Luc reporter plasmid were treated with 100 ng/mL of LPS, the cells transfected with the SBE-Luc reporter plasmid were treated with 5 ng/mL of TFG-β1, and the cells transfected with the BRE-Luc reporter plasmid were treated with 100 ng/mL of BMP6 for two hours.
As described in Example 2.3, 5×NF-κB-Luc reporter plasmid was transfected into RAW 246.7 macrophage cells. After 24 hours, the cells transfected with NF-κB-Luc reporter plasmid were pretreated with compound 1.1 (SEQ ID NO: 2) (100 nM), interleukin-1-receptor-associated-kinase-1/4 inhibitor (IRAK1/4) inhibitor (25 μM, CAS 509093-47-4), and smaducin-6 (100 nM) for 30 minutes, and then further treated with LPS (100 ng/ml) for 2 hours. Subsequently, luciferase activities in the cells were measured.

[4] = tested on: MAPK signaling pathway proteins (ERK1/2, JNK, p38); assay: Western blot of MAPK signaling pathway protein phosphorylation in LPS-treated BMDM cells; type: cell-based; details: 100 pM, 1 nM, 100 nM, LPS 2 hours
Procedure: BMDM cells were pretreated with DMSO, reference compound 1 (SEQ ID NO: 16), compound 1.1 (SEQ ID NO: 2) and smaducin-6 at various concentrations of 100 pM, 1 nM and 100 nM and then further treated with LPS 2 hours. Thereafter, Western blot analysis was performed.

[5] = tested on: SBE (TFG-β1 signaling); assay: SBE-Luc reporter assay in Raw 264.7 cells treated with TFG-β1; type: cell-based; details: 5 ng/mL TFG-β1 two hours
Procedure: as §1

[6] = tested on: STZ-induced diabetic retinopathy; assay: Active oxygen in retina of STZ-induced diabetic retinopathy model; type: in vivo; details: mice; 0.2 μg into one eye, three times; vs non-treated DR sample
Procedure: Streptozotocin (STZ) was administered at dose of 50 mg/kg to mice daily for 5 days, and a mouse model having induced diabetic retinopathy was obtained. The experimental group of the mouse model was injected with compound 1.1 (SEQ ID NO: 2), in an amount of 0.2 μg into one eye of the mouse, from the 20th day to 24th days from the administration, three times with two days of interval. After 50 days of administration, a DR sample that was not treated with compound 1.1 (SEQ ID NO: 2) and a DR sample treated with compound 1.1 (SEQ ID NO: 2) were collected.
The collected retina tissues from each mouse group as described above were stained with 5 μM of dihydroethidium and active oxygen rates from each group were measured (FIG. 27B). […] Accordingly, compound 1.1 (SEQ ID NO: 2) of the present invention is effectively used for preventing, alleviating or treating ophthalmic indications such as diabetic retinopathy from the biological experiments using mice.

SMILES: CCCCCCCCCCCCCCCC(=O)N1CCC[C@H]1C(=O)N1CCC[C@H]1C(=O)NCC(=O)N[C@@H](Cc1ccc(O)cc1)C(=O)O [compound 1.1, (S)-3-(4-hydroxyphenyl)-2-(2-((S)-1-((S)-1-palmitoylpyrrolidine-2-carbonyl)pyrrolidine-2-carboxamido)acetamido)propanoic acid] (HELM PEPTIDE1{[CCCCCCCCCCCCCCCC(=O)[*:2]].P.P.G.Y}$$$$V2.0)
- AP-1-Luc luciferase activity (MAPK signaling pathway) [1]: did not suppress MAPK signaling pathways
- disease activity (disease activity index score) ([2]; oral 50, 100, 200, 400 mg/kg daily for 11 days): decreased as the dose increased
- dose at which the decrease in disease activity was saturated ([2]; oral daily for 11 days): 200 mg/kg
- inhibition of the activity of NF-κB induced by LPS, dose dependence ([3]; 100 pM, 1 nM): increased as dose of compound 1.1 (SEQ ID NO: 2) increased
- activation of NF-κB induced by LPS (luciferase activity) [3]: inhibited
- phosphorylation of MAPK/ERK signaling pathway proteins (ERK1/2, JNK, p38) [4]: not related to suppressing phosphorylation
- activation of SBE induced by TFG-β1 treatment [5]: not inhibited
- active oxygen rate in retina tissues (dihydroethidium) [6]: reduced active oxygen rate
